Source: patent US8993585B2, “Cyclic amine substituted pyrimidinediamines as PKC inhibitors” (Rigel Pharmaceuticals, Inc., priority 2007, dated 2015)
Blank lines part the entries; values can stand above or below the compound they belong to.

System: Human primary T cells
Experiment: IL-2 ELISA, Human Primary T Cell, Anti-CD3+CD28+ (Example 3)
Format: cell-based
Conditions: anti-CD3+CD28 stimulation
Description: Human primary T cell isolation and culture: Human primary T cells were prepared as follows. […] The cells at the serum:ficoll interface were recovered and washed twice with 5 volumes of PBS. […] The primary T-cells were then washed twice with PBS to remove the IL-2.
Primary T cell stimulation and IL2 ELISA: Human primary T cells (100,000 cells per well) were pre-incubated with or without test compound in Yssel's medium for 1 hr at 37° C. Cells were then stimulated by transferring them to round-bottom 96-well plates pre-coated with 1 ug/ml αCD3 and 5 μg/ml αCD28. For counter assay, cells were instead stimulated by adding 8× stock solutions of PMA and ionomycin in Yssels (for final concentrations of 0.5 ng/ml PMA and 0.1 uM ionomycin, both from Calbiochem).

Compound: CN1C(C)(C)CC(Nc2nc(Nc3ccc(N4CCSCC4)c(C(F)(F)F)c3)ncc2F)CC1(C)C [Compound I-331]
IC50 (24 hours): 0.806 µM

Compound: CN1C(C)(C)CC(Nc2nc(Nc3ccc4c(c3)OCCO4)ncc2C#N)CC1(C)C [II-60]
IC50 (24 hours): 0.717 µM

Compound: COc1ccc(Nc2ncc(C(F)(F)F)c(NC3CC(C)(C)N(C)C(C)(C)C3)n2)cc1Cl [Compound I-32]
IC50 (24 hours): 0.328 µM

Compound: CC(=O)Nc1ccc(Nc2ncc(F)c(NC3CC(C)(C)N(C)C(C)(C)C3)n2)cc1C(F)(F)F [Compound I-161]
IC50 (24 hours): 1.05 µM

Compound: COc1cc(Nc2ncc(F)c(N(Cc3cc4c(cc3Br)OCO4)C3CC(C)(C)N(C)C(C)(C)C3)n2)cc(OC)c1 [Compound I-323]
IC50 (Homo sapiens, T-cell, 24 h): 4.71 µM

Compound: Cc1ccc(C)n1-c1cc(Nc2ncc(F)c(NC3CC(C)(C)N(C)C(C)(C)C3)n2)ccc1OCCN1CCCC1 [Compound I-440]
IC50 (Homo sapiens, T-cell, 24 h): 0.52 µM

Compound: COc1cccc(Nc2ncc(F)c(NC3CCC(C)(C)N(C)C(C)(C)C3)n2)c1 (stereo not drawn) [Compound I-269, 5-Fluoro-N2-[3-methoxy]phenyl-N4-(1,2,2,7,7-pentamethylazepan-4-yl)-2,4-pyrimidinediamine]
IC50 (24 hours): 8.2 µM

Compound: CN1CCN(c2ccc(Nc3ncc(F)c(NC4CC(C)(C)NC(C)(C)C4)n3)cc2C(F)(F)F)CC1 [Compound I-255]
IC50 (24 hours): 0.236 µM

Compound: CN1C(C)(C)CC(Nc2nc(Nc3ccc4c(c3)OCO4)ncc2F)CC1(C)C [II-32]
IC50 (24 hours): 0.864 µM

Compound: COc1ccc(Nc2ncc(F)c(NC3CC(C)(C)N(C)C(C)(C)C3)n2)cc1-c1cccnc1 [Compound I-194]
IC50 (24 hours): 0.804 µM

Compound: COc1cc(Nc2ncc(F)c(N(Cc3ccc4ccccc4c3)C3CC(C)(C)N(C)C(C)(C)C3)n2)cc(OC)c1 [Compound I-314]
IC50 (Homo sapiens, T-cell, 24 h): 2.57 µM

Compound: COc1ccc(Nc2ncc(F)c(NC3CC(C)(C)N(C)C(C)(C)C3)n2)cc1-c1ccncc1 [Compound I-193]
IC50 (24 hours): 0.653 µM

Compound: CN1CC2(C)CN(c3ccc(Nc4ncc(F)c(NC5CC(C)(C)N(C)C(C)(C)C5)n4)cc3C(F)(F)F)CC(C)(C1)C2 [Compound I-259]
IC50 (24 hours): 2.54 µM

Compound: COC(=O)CCN1C(C)(C)CC(Nc2nc(Nc3cc(Cl)cc(Cl)c3)ncc2F)CC1(C)C [Compound I-294]
IC50 (Homo sapiens, T-cell, 24 h): 4.55 µM

Compound: COc1cc(Nc2ncc(F)c(NC3CC(C)(C)N(C)C(C)(C)C3)n2)cc(C(F)(F)F)c1 [Compound I-145]
IC50 (24 hours): 0.897 µM

Compound: CN1C(C)(C)CC(Nc2nc(Nc3ccc(NC(=O)c4ccccc4)cc3)ncc2F)CC1(C)C [Compound I-133]
IC50 (24 hours): 1.13 µM

Compound: CC(C)Oc1ccc(Nc2ncc(F)c(NC3CC(C)(C)N(C)C(C)(C)C3)n2)cc1Cl [Compound I-346]
IC50 (24 hours): 0.248 µM

Compound: CN1C(C)(C)CC(Nc2nc(Nc3ccc(OC(F)(F)F)c(-c4ccoc4)c3)ncc2F)CC1(C)C [Compound I-209]
IC50 (24 hours): 0.706 µM

Compound: COc1cc(Nc2ncc(F)c(NC3CC(C)(C)NC(C)(C)C3)n2)cc(-n2nnnc2C)c1 [Compound I-372]
IC50 (24 hours): 0.0921 µM

Compound: CN1C(C)(C)CC(Nc2nc(Nc3ccc(C(=O)NC4CC4)c(C(F)(F)F)c3)ncc2F)CC1(C)C [Compound I-230]
IC50 (24 hours): 1.09 µM

Compound: Cc1ccc(C)n1-c1cc(Nc2ncc(F)c(NC3CC(C)(C)NC(C)(C)C3)n2)ccc1OCCN1CCOCC1 [Compound I-441]
IC50 (Homo sapiens, T-cell, 24 h): 1.69 µM

Compound: Cc1ccc(Nc2ncc(Br)c(NC3CC(C)(C)N(C)C(C)(C)C3)n2)cc1C#N [Compound I-277]
IC50 (24 hours): 0.206 µM

Compound: Cc1nccc(-c2cccc(Nc3ncc(F)c(NC4CC(C)(C)N(C)C(C)(C)C4)n3)c2)n1 [Compound I-69]
IC50 (24 hours): 2.39 µM

Compound: CN1C(C)(C)CC(N(Cc2ccccc2)c2nc(Nc3ccc(N4CCOCC4)c(C(F)(F)F)c3)ncc2F)CC1(C)C [Compound I-312]
IC50 (Homo sapiens, T-cell, 24 h): 1.69 µM

Compound: COC(=O)N1CCN(c2ccc(Nc3ncc(F)c(NC4CC(C)(C)N(C)C(C)(C)C4)n3)cc2C(F)(F)F)CC1 [Compound I-47]
IC50 (24 hours): 0.136 µM

Compound: CN1C(C)(C)CCC(Nc2nc(Nc3ccc(N4CCOCC4)c(C(F)(F)F)c3)ncc2F)CC1(C)C (stereo not drawn) [Compound I-261, 5-Fluoro-N2-[4-morpholine-3-trifluoromethyl]phenyl-N4-(1,2,2,7,7-pentamethylazepan-4-yl)-2,4-pyrimidinediamine]
IC50 (24 hours): 4.67 µM

Compound: Cc1cc(Nc2ncc(F)c(NC3CC(C)(C)N(C)C(C)(C)C3)n2)ccc1-n1cnnn1 [Compound I-397]
IC50 (24 hours): 1.98 µM

Compound: COc1ccc(Nc2ncc(F)c(NC3CC(C)(C)N(C)C(C)(C)C3)n2)cc1OC(F)F [Compound I-359]
IC50 (24 hours, citrate salt): 0.118 µM

Compound: Cc1ccc(Nc2ncc(F)c(NC3CC(C)(C)N(C)C(C)(C)C3)n2)cc1-n1cnnn1 [Compound I-398]
IC50 (24 hours): 0.05 µM

Compound: CN1C(C)(C)CC(Nc2nc(Nc3ccc(N4CCC(F)(F)CC4)c(Cl)c3)ncc2F)CC1(C)C [Compound I-50]
IC50 (24 hours): 0.32 µM

Compound: COc1ccc(Nc2ncc(F)c(N(Cc3ccc(-c4ccccc4)cc3)C3CC(C)(C)N(C)C(C)(C)C3)n2)cc1OC(F)F [Compound I-319]
IC50 (Homo sapiens, T-cell, 24 h): 2.85 µM

Compound: COc1cc(Nc2ncc(F)c(NC3CC(C)(C)N(C)C(C)(C)C3)n2)ccc1-n1nc(C)cc1C [Compound I-361]
IC50 (24 hours): 4.66 µM

Compound: COc1ccc(Nc2ncc(F)c(NC3CC(C)(C)N(C)C(C)(C)C3)n2)cc1-c1cnco1 [Compound I-369]
IC50 (24 hours): 0.624 µM

Compound: CN1C(C)(C)CC(Nc2nc(Nc3ccc(NC(=O)c4ccco4)c(C(F)(F)F)c3)ncc2F)CC1(C)C [Compound I-355]
IC50 (24 hours): 0.893 µM

Compound: CCCN1CCN(c2cc(Nc3ncc(F)c(NC4CC(C)(C)N(C)C(C)(C)C4)n3)ccc2Cl)CC1 [Compound I-56]
IC50 (24 hours): 2.38 µM

Compound: COc1cc(Nc2ncc(C)c(NC3CC(C)(C)N(C)C(C)(C)C3)n2)cc(OC)c1 [Compound I-425]
IC50 (Homo sapiens, T-cell, 24 h): 1.14 µM

Compound: CN1C(C)(C)CC(Nc2nc(Nc3cccc(-c4cccnc4)c3)ncc2F)CC1(C)C [Compound I-107]
IC50 (24 hours): 0.75 µM

Compound: CN(C)c1ccc(-c2ccc(Nc3ncc(F)c(NC4CC(C)(C)N(C)C(C)(C)C4)n3)cc2C#N)cn1 [Compound I-426]
IC50 (Homo sapiens, T-cell, 24 h): 0.42 µM

Compound: CCc1cc(Nc2ncc(F)c(NC3CC(C)(C)N(C)C(C)(C)C3)n2)cc(C#N)c1Cl [Compound I-128]
IC50 (24 hours): 0.876 µM

Compound: Cc1nnnn1-c1cccc(Nc2ncc(C#N)c(NC3CC(C)(C)N(C)C(C)(C)C3)n2)c1 [Compound I-462]
IC50 (24 hours): 0.27 µM

Compound: CN1C(C)(C)CC(Nc2nc(Nc3cccc(OC(F)(F)F)c3)ncc2Br)CC1(C)C [Compound I-275]
IC50 (24 hours): 0.617 µM

Compound: Cc1nnnn1-c1cccc(Nc2ncc(F)c(NC3CC(C)(C)N(C)C(C)(C)C3)n2)c1 [Compound I-396]
IC50 (24 hours): 0.1 µM

Compound: CN1C(C)(C)CC(Nc2nc(Nc3ccc(N4CCN(S(C)(=O)=O)CC4)c(C(F)(F)F)c3)ncc2F)C1(C)C (stereo not drawn) [Compound I-286]
IC50 (24 hours): 2.42 µM

Compound: COc1cc(Nc2ncc(F)c(NC3CC(C)(C)N(C)C(C)(C)C3)n2)cc(OCCN2CCCC2)c1 [Compound I-434]
IC50 (Homo sapiens, T-cell, 24 h): 0.27 µM

Compound: COc1ccc(Nc2ncc(F)c(NC3CC(C)(C)N(C)C3(C)C)n2)cc1C(F)(F)F (stereo not drawn) [Compound I-283, 5-Fluoro-N2-(4-methoxy-3-trifluoromethyl)phenyl-N4-(1,2,2,5,5-pentamethylpyrrolidin-3-yl)-2,4-pyrimidinediamine]
IC50 (24 hours): 2.7 µM

Next, values leading:

IC50 (Homo sapiens, T-cell, 24 h): 0.369 µM
Compound: CN1C(C)(C)CC(Nc2nc(Nc3ccc4c(c3)OC(C)(C)C(=O)N4CCCF)ncc2F)CC1(C)C [II-78]

IC50 (Homo sapiens, T-cell, 24 h): 4.88 µM
Compound: CN1CCc2cc(Nc3ncc(F)c(NC4CC(C)(C)N(C)C(C)(C)C4)n3)ccc21 [II-51]

IC50 (Homo sapiens, T-cell, 24 h): 3.6 µM
Compound: CCN(CC)c1ccc(-c2csc(Nc3ncc(F)c(NC4CC(C)(C)N(C)C(C)(C)C4)n3)n2)cc1 [II-135]

IC50 (Homo sapiens, T-cell, 24 h): 10.9 µM
Compound: COc1cnc(Nc2ccc3c(c2)OCCO3)nc1NC1CC(C)(C)N(C)C(C)(C)C1 [II-129]

IC50 (Homo sapiens, T-cell, 24 h): 0.199 µM
Compound: CN1C(C)(C)CC(Nc2nc(Nc3ccc4c(c3)OC(C)(C)C(=O)N4CCF)ncc2F)CC1(C)C [II-80]

IC50 (Homo sapiens, T-cell, 24 h): 1 µM
Compound: CN1C(C)(C)CC(Nc2nc(Nc3nc(-c4ccc(F)cc4F)cs3)ncc2F)CC1(C)C [II-141]

IC50 (Homo sapiens, T-cell, 24 h): 2.63 µM
Compound: CN1C(C)(C)CC(Nc2nc(Nc3ccc4c(c3)OC3(CCCCC3)O4)ncc2F)CC1(C)C [II-114]

IC50 (Homo sapiens, T-cell, 24 h): 1.8 µM
Compound: CN1C(=O)c2ccc(Nc3ncc(F)c(NC4CC(C)(C)NC(C)(C)C4)n3)cc2C1=O [II-153]

IC50 (Homo sapiens, T-cell, 24 h): 0.99 µM
Compound: CN1C(C)(C)CC(Nc2nc(Nc3ccc4c(c3)C(=O)NC4=O)ncc2F)CC1(C)C [II-148]

IC50 (Homo sapiens, T-cell, 24 h): 1.32 µM
Compound: CN1C(C)(C)CC(Nc2nc(Nc3ccc4c(c3)OCc3nccn3-4)ncc2F)CC1(C)C [II-11]

IC50 (Homo sapiens, T-cell, 24 h): 1.24 µM
Compound: CN(C)CCN1C(=O)C(C)(C)Oc2cc(Nc3ncc(F)c(NC4CC(C)(C)N(C)C(C)(C)C4)n3)ccc21 [II-49]

IC50 (24 hours): 0.41 µM
Compound: CC(C)N1C(=O)C2(CCC2)Oc2cc(Nc3ncc(F)c(NC4CC(C)(C)N(C)C(C)(C)C4)n3)ccc21 [II-165]

IC50 (Homo sapiens, T-cell, 24 h): 19.6 µM
Compound: CN1C(C)(C)CC(Nc2nc(N[C@H]3CCc4ccccc43)ncc2F)CC1(C)C [II-83]

IC50 (Homo sapiens, T-cell, 24 h): 0.255 µM
Compound: CCN1C(=O)C(F)(F)Oc2cc(Nc3ncc(C#N)c(NC4CC(C)(C)N(C)C(C)(C)C4)n3)cnc21 [II-65]

IC50 (Homo sapiens, T-cell, 24 h): 4.39 µM
Compound: Cc1cc(NC2CC(C)(C)N(C)C(C)(C)C2)nc(Nc2ccc(N3CCN(S(C)(=O)=O)CC3)c(Cl)c2)n1 [IV-3]

IC50 (Homo sapiens, T-cell, 24 h): 2.94 µM
Compound: CCn1c(=O)oc2ccc(Nc3ncc(F)c(NC4CC(C)(C)NC(C)(C)C4)n3)cc21 [II-174]

IC50 (24 hours): 1.18 µM
Compound: CCN1C(=O)C(F)(F)Oc2cc(Nc3ncc(C#N)c(NC4CC(C)(C)NC(C)(C)C4)n3)cnc21 [II-73]

IC50 (Homo sapiens, T-cell, 24 h): 1.84 µM
Compound: CN1C(C)(C)CC(Nc2nc(Nc3cc4c(cc3Cl)OCO4)ncc2F)CC1(C)C [II-115]

IC50 (24 hours): 0.476 µM
Compound: CC(C)N1C(=O)C(C)(C)Oc2cc(Nc3ncc(C#N)c(NC4CC(C)(C)NC(C)(C)C4)n3)ccc21 [II-75]

IC50 (24 hours): 2.38 µM
Compound: COc1ccc(Nc2ncc(F)c(NC3CCN(C)CC3)n2)cc1Cl [III-1, N2-(3-Chloro-4-methoxy)phenyl-5-fluoro-N4-(1-methylpiperidin-4-yl)-2,4-pyrimidinediamine]

IC50 (Homo sapiens, T-cell, 24 h): 3.5 µM
Compound: CN1C(C)(C)CC(Nc2nc(Nc3ccc4c(c3)oc(=O)n4CCN3CCOCC3)ncc2C#N)CC1(C)C [II-169]
